Source: article PMC8780828 (Viruses, 2021)
Entries after “also recorded” stand apart in the source; their conditions may differ. Read-outs that look alike come from different tables or passages of the source.

Columns and labels:
[1] = system: pseudovirus NL4-3ΔEnv-NanoLuc/SARS-CoV-2; test: organism not typed; type: cell-based; details: 293T/ACE2
[2] = system: pseudovirus NL4-3ΔEnv-NanoLuc/SARS-CoV-2; test: organism not typed; type: cell-based; details: HT-1080; n=3
[3] = system: pseudovirus NL4-3ΔEnv-NanoLuc/SARS-CoV-2; test: organism not typed; type: cell-based; details: A549-ACE2; n=3
[4] = system: pseudovirus NL4-3ΔEnv-NanoLuc/SARS-CoV; test: microbe, parasite or virus in culture; type: cell-based; details: Severe acute respiratory syndrome coronavirus, 293T/ACE2; n=3
[5] = system: pseudovirus NL4-3ΔEnv-NanoLuc/SARS-CoV; test: microbe, parasite or virus in culture; type: cell-based; details: Severe acute respiratory syndrome coronavirus, HT-1080; n=3; read-out: IC50
[6] = system: pseudovirus NL4-3ΔEnv-NanoLuc/SARS-CoV; test: microbe, parasite or virus in culture; type: cell-based; details: Severe acute respiratory syndrome coronavirus, A549-ACE2; n=3; read-out: IC50
[7] = system: pseudovirus NL4-3ΔEnv-NanoLuc/MERS-CoV; test: microbe, parasite or virus in culture; type: cell-based; details: Middle East respiratory syndrome-related coronavirus, Huh-7; n=3; read-out: IC50
[8] = system: pseudovirus NL4-3ΔEnv-NanoLuc/MERS-CoV; test: microbe, parasite or virus in culture; type: cell-based; details: Middle East respiratory syndrome-related coronavirus, MRC5; n=3; read-out: IC50
[9] = system: control pseudovirus NL4-3.Luc.R-E-/A-MLV; test: Control pseudovirus A-MLV assay in 293T/ACE2 cells; type: cell-based, amphotropic murine leukemia virus (A-MLV); details: NL43, 293T/ACE2
[10] = system: NL4-3ΔEnv-NanoLuc/SARS-CoV-2; test: organism not typed; type: cell-based
[11] = system: pseudovirus NL4-3ΔEnv-NanoLuc/SARS-CoV-2; test: SARS-CoV-2 pseudovirus assay with pre-treated 293T/ACE2 cells; type: cell-based; details: 293T/ACE2 cells pre-treated with compound 30 min before infection
[12] = system: SARS-CoV-2 (US_WA-1/2020); type: cell-based
MERS-CoV pseudovirus = test: microbe, parasite or virus in culture; type: cell-based; details: Middle East respiratory syndrome-related coronavirus
in vitro [13] = details: human
in vitro [14] = details: human; remark: listed apart in the source
β-lactamase = type: biochemical
Trypsin = type: biochemical
[15] = biological target: malate dehydrogenase (MDH); type: biochemical
in vitro [16] = details: both, human, microsomes, pH 7.4
SARS-CoV-2 [17] = details: A549-hACE2 cells; NLuc-based assay; cited from earlier work
SARS-CoV-2 [18] = details: Vero E6 cells; NLuc-based assay; cited from earlier work
FLuc = FLuc (Photinus pyralis, UniProt P08659); type: biochemical
Sequence of FLuc (P08659 whole entry): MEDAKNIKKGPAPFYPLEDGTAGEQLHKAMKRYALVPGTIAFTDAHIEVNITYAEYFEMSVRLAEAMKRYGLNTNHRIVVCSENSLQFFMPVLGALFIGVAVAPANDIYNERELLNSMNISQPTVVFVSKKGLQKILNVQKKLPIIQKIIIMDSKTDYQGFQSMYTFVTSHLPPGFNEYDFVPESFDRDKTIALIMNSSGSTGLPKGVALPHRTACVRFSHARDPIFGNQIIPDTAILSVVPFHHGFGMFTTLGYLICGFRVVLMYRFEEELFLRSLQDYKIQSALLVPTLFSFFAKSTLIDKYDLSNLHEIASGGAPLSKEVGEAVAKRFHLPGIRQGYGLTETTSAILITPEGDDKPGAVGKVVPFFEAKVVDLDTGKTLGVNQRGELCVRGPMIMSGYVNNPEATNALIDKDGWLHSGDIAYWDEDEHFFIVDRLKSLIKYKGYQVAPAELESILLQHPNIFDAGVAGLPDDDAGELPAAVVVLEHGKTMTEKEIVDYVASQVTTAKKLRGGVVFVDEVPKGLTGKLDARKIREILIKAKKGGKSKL

| SMILES | IC50 [1] [µM] | IC50 [2] [µM] | antiviral activity against SARS-CoV-2 pseudovirus [10] | CC50 (in vitro [13]) [µM] | CC50 (in vitro [14]) [µM] | further results |
| --- | --- | --- | --- | --- | --- | --- |
| Cc1c(C(=O)O)cncc1-c1ccc(/C=C2\SC(=S)N(CCc3ccccc3)C2=O)o1 [NBCoV9] | 0.342 ± 0.046 | 0.365 ± 0.073 | – | – | – | IC50 [3]: 0.596 ± 0.042 µM; IC50 [4]: 0.217 ± 0.022 µM; IC50 [5]: 0.246 ± 0.01 µM; IC50 [6]: 0.35 ± 0.015 µM; IC50 [7]: 0.214 ± 0.023 µM; IC50 [8]: 0.232 ± 0.017 µM; IC50 [9]: 1.63 ± 0.118 µM; IC100 (range of IC100 values detected in the three cell lines) [10]: 2 to 3 µM; IC50 [11]: > 2 µM; IC100 [12]: > 10 µM; IC50 (MERS-CoV pseudovirus): ~0.2 µM |
| O=C1C(=Cc2ccc(-c3ccc(Cl)cc3)o2)SC(=S)N1CCc1ccccc1 [NBCoV15, 5-((5-(4-chlorophenyl)furan-2-yl)methylene)-3-phenethyl-2-thioxothiazolidin-4-one] | > 2 | > 2 | virtually no inhibition; also recorded: no antiviral activity; also recorded: no antiviral potency | – | – | – |
| O=C1NC(=S)S/C1=C\c1ccc(-c2ccc(Cl)c(C(=O)O)c2)o1 [NBCoV17] | > 2 | > 2 | no antiviral activity; also recorded: did not show any inhibitory activities | > 100 | > 100 | – |
| C#CCN1C(=O)/C(=C/c2ccc(-c3ccc(Cl)c(C(=O)O)c3)o2)SC1=S [NBCoV28] | > 2 | > 2 | no antiviral activity; also recorded: did not show any inhibitory activities | > 100 | 92 ± 3 | – |
| O=C1NC(=S)S/C1=C\c1ccc(-c2ccc(C(=O)O)cc2)o1 [NBCoV34] | > 2 | > 2 | no antiviral activity; also recorded: no inhibitory activity | 83 ± 4 | ~100 | IC50 (β-lactamase): > 2 µM; IC50 (Trypsin): > 2 µM; IC50 [15]: > 2 µM |
| C[C@]12CC[C@H]3[C@@H](CCC4=CC(=O)CC[C@@]43C)[C@@H]1CC[C@@H]2O [Testosterone, reference compound] | – | – | – | – | – | half-life (in vitro [16]): 11.3 min; microsomal CLint (in vitro [16]): 122 µL/min/mg |
| CCC(CC)COC(=O)[C@H](C)N[P@](=O)(OC[C@H]1O[C@@](C#N)(c2ccc3c(N)ncnn23)[C@H](O)[C@@H]1O)Oc1ccccc1 [remdesivir] | – | – | – | – | – | antiviral potency (SARS-CoV-2 [17]): 0.115 µM; antiviral potency (SARS-CoV-2 [18]): 1.28 µM |
| Oc1ccc(/C=C/c2cc(O)cc(O)c2)cc1 [resveratrol] | – | – | – | – | – | effect on FLuc activity (FLuc): completely blocked |
